Data set [1] is described as follows: Dose estimation by allometric relationship (PAD, HED). The note with it: mouse models. The text has this: Based on pharmacokinetic studies and efficacy in vivo, it is possible to estimate a dosage in humans by allometric relationship (USFDA. Guidance for Industry: Estimating the Maximum Safe Starting Dose in Adult Healthy Volunteer. Rockville, MD: US Food and Drug Administration; 2005). […] The human equivalent dose (HED) can be estimated according with the FDA guidelines by means of the following formula: HED = animal dose × (((animal weight)/(human weight)))^((1−0.67)) [formula]
Based on PAD in mouse models, the HED can be estimated as 1.8 mg/(Kg·day) considering a mouse average weight of 30 g and an adult human body weight of 60 Kg.

The subject of another data set is U87. Description: Cytotoxicity, cell count method. In kind it is cell-based. The note with it: Homo sapiens, U-87 MG, U87, 72 hours of incubation. As for the experimental part: (§1) The anti-tumor activity of the compounds of the present invention was evaluated as the effect on the proliferation and survival of tumor cells by counting the number of living cells in presence or absence of the compounds ("cell count method"), and as the effect on the viability and metabolic activity of the cells, by using particular substrates that are converted by cellular enzymes into coloured or luminescent products, proportionally with metabolic activity and state of the cell, such as the MTS tetrazolium compound ("MTS method") or luciferin ("ATP-based method") respectively.
(§2) Cells were seeded at 3 to 5 x 10^4 cells/well density depending on cell lines and maintained at 37°C in 5% CO2. After 24 hours cells were treated with ascending concentrations of the investigational compounds and the reference (5-fluoro-Uracyl) in a range from 0 to 100 µM. Compounds were dissolved in DMSO which final concentration in each well was 0.5% v:v. After 72 h of incubation with compounds, the cells were detached with trypsin and re-suspended in 1 ml of complete medium; the cell number was evaluated using a Z2 Coulter Counter ("cell count method") (Attallah and Johnson, A simple highly sensitive methods for the determination of cell viability using an electronic particle analyzer, Coulter counter J. Immunol. Methods. 1981, 41, 155; Leonardi et al., Activated kinase screening identifies the IKBKE oncogene as a positive regulator of autophagy. Autophagy, 2019, 15, 312). Alternatively, after the 72 hours of incubation with compounds, the MTS solution (CellTiter 96® AQueous One Solution Cell Proliferation Assay) is added to each well and absorbance at 490 nm wavelength is read after 2 hours of incubation ("MTS method"). Results in Tables 8-13, 17, 18 were obtained with the cell count method. Results in Tables 14-15 were obtained with the MTS method. Results in Table 16 were obtained with ATP-based method.

In a further data set the test system is A375 cell line. Description: Cytotoxicity, cell count method. In kind it is cell-based. Particulars: Homo sapiens, A-375, A375, 72 hours of incubation. As for the experimental part: as §1, §2
Another data set deals with SK-LU1. Description: Cytotoxicity, cell count method. In kind it is cell-based. The note with it: Homo sapiens, SK-LU-1, SK-LU1, 72 hours of incubation. As for the experimental part:
as §1, §2

In the next data set the test system is CALU1. Description: Cytotoxicity, cell count method. The note with it: Homo sapiens, Calu-1, CALU1, 72 hours of incubation. In kind it is cell-based. As for the experimental part:
as §1, §2

The next data set relates to HUH7 cell line. Description: Cytotoxicity, cell count method. In kind it is cell-based. Particulars: Homo sapiens, Huh-7, HUH7, 72 hours of incubation. As for the experimental part:
as §1, §2

Another data set deals with A549 Red-FLuc. Put plainly: Cytotoxicity, cell count method. In kind it is cell-based. The note with it: Homo sapiens, 72 hours of incubation. As for the experimental part: as §1, §2
The next data set has as its system A549. Description: Cytotoxicity, cell count method. Particulars: Homo sapiens, A549, 72 hours of incubation. In kind it is cell-based. As for the experimental part:
as §1, §2

Another data set relates to PANC-1 cell line. Put plainly: Cytotoxicity, cell count method. In kind it is cell-based. Particulars: Homo sapiens, PANC-1, 72 hours of incubation. As for the experimental part:
as §1, §2

A further data set deals with DU145 cell line. Description: Cytotoxicity, cell count method. In kind it is cell-based. Particulars: Homo sapiens, DU-145, DU145, 72 hours of incubation. As for the experimental part:
as §1, §2

Another data set is described as follows: Plasma stability. In kind it is in vitro ADME, Sprague Dawley rats. Particulars: Rat plasma. As for the experimental part:
Plasma previously separated from whole blood in EDTA-treated tubes and frozen; blood samples obtained from healthy volunteers, Sprague Dawley rats and CD1 mice, was thawed at room temperature and centrifuged at 1400x RCF 4°C, for 15 minutes. Approximately 90% of the clear supernatant fraction was transferred to a separate tube and was used for the assay.
Stocks (1 mM and 25 µM) of test compound were prepared in acetonitrile:water (50:50 v/v). Plasma samples were heat inactivated at 54°C. 3 µl of 25 µM test compound were added to 72 µl of heat inactivated plasma. A 50 µL aliquot of the mixture was taken and crashed with 200 µl of acetonitrile containing Telmisartan 100 ng/ml as internal standard and was further processed along with other time points: 10, 30 60 and 120 minutes.
Final working stock of 1 µM was prepared by diluting 12 µl of 25 µM stock in 288 µl of plasma. The obtained solution (300 µl) of plasma containing the test compound was incubated for […] at 37°C in shaker water bath with gentle shaking. 50 µl aliquot of sample at 10, 30, 60 and 120 min was precipitated immediately with 200 µl of acetonitrile containing internal standard and centrifuged at 4000x RCF, 4°C for 20 minutes. 150 µl of supernatant was diluted with 150 µl of water and analyzed by LC-MS/MS.
The % remaining of the test substance was calculated as: (Peak Area ratio at time (min))/(Peak Area Ratio at 0 min) ^∗ 100
The API400 MS and Agilent 1260 Infinity LC were used. Mobile Phase included 10mM Ammonium acetate with 0.1% formic acid in MilliQ water, and Methanol. The column was Phenomenex, KINETIC EVO C18 100A 5u 50^∗4.6 mm, 10 µl injection volume.

The text below walks through data of EP4050002A1, “ANTI-PROLIFERATIVE AGENTS” (First Health Pharmaceuticals B.V., priority 2021, dated 2022).

What is called IC50 is the midpoint of a concentration-inhibition curve. For the compound `CCCCc1cn(-c2ccc(-c3nnc(-c4ccccc4C(F)(F)F)o3)cc2)nn1` [Compound 5], the “pharmacologically active dose (PAD)” value in data set [1] was 22.5 mg·kg-1·day-1. Also, the IC50 in the data set on U87 worked out at 3900 nM; in the data set with A375 cell line, 940 nM; with SK-LU1, 420 nM; in the data set with CALU1, 370 nM; in the data set on HUH7 cell line it was 3280 nM; with A549 Red-FLuc, 6040 nM. Also, the IC50 was determined as 350 nM in the data set with A549, 720 nM in the data set on PANC-1 cell line and 3700 nM in the data set with DU145 cell line. The “% Remaining ± SD” value came to 100.0 ± 1.0% in the data set “Plasma stability” (0 minutes); 107.1 ± 4.1% in the data set “Plasma stability” (10 minutes); 103.3 ± 2.3% in the data set “Plasma stability” (30 minutes); 99.0 ± 6.8% in “Plasma stability” (60 minutes); 104.8 ± 5.6% in the data set “Plasma stability” (120 minutes).
